From patent publication US20240343694A1, “PYRIMIDINE DERIVATIVE, METHOD FOR PREPARING SAME, AND PHARMACEUTICAL COMPOSITION FOR PREVENTING OR TREATING CANCER COMPRISING SAME AS ACTIVE INGREDIENT” (KOREA RESERARCH INSTITUTE OF CHEMICAL TECHNOLOGY, priority 2021, published 2024)
pIC50: −log10 of the molar value.

Assays:
[1] = target: EGFR A763_Y764insFHEA (Homo sapiens (Human), UniProt P00533, INS763FHEA); test: HTRF inhibitory activity against EGFR mutant enzyme (EGFR A763_Y764insFHEA); assay type: biochemical; conditions: recombinant enzyme, 37° C. for 2 hours
Chain of EGFR A763_Y764insFHEA (P00533 other isoform, or with tags, fused parts or gaps del 1-694/ins FHEA behind 763 limits assumed): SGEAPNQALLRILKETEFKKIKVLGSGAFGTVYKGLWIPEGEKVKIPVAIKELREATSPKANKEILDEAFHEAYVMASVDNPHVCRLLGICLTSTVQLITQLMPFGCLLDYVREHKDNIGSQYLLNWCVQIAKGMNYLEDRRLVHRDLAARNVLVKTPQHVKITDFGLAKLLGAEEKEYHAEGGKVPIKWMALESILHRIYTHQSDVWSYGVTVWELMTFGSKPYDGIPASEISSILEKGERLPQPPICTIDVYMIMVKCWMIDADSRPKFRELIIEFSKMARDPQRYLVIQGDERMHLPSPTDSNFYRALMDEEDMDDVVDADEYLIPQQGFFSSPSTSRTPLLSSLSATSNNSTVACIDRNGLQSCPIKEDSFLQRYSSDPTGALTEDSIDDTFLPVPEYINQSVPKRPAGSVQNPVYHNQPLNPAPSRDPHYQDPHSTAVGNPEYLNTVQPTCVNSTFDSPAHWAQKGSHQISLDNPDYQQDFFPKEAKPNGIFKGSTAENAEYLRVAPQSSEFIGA
Method: (§1) The activity of the compounds of the present invention against EGFR mutant enzymes was measured using the HTRF system purchased from Cisbio as follows. For an EGFR mutant enzyme, the EGFR del19 enzyme was a recombinant protein purchased from Carna Biosciences, and the EGFR A763_Y764insFHEA enzyme was a recombinant protein purchased from SignalChem, respectively.
(§2) The composition of the assay buffer used for activity measurement was 50 mM tris-HCl pH 7.5, 100 mM NaCl, 7.5 mM MgCl2, 3 mM KCl, 0.01% tween 20, 0.1% BSA, and 1 mM DTT. An enzymatic reaction was performed using a peptide substrate labeled with ATP at a concentration of […] and biotin at a concentration of […]. The analysis of the inhibitory effect of the compounds on EGFR activity was performed according to the following method. • Component 1:4 μL of EGFR mutant enzyme • Component 2:2 μL of compound solution • Component 3:4 μL of ATP and a biotin labeled peptide
(§3) The enzyme reaction begins by first mixing component 1 and component 2 and then adding component 3 thereto. After the reaction at 37° C. for 2 hours, […] of a measurement solution consisting of streptavidin-XL665 and a europium-labeled anti-phosphotyrosine antibody purchased from Cisbio was added to the enzyme reaction solution and reacted at room temperature for 1 hour. Finally, the ratio of fluorescence values at 615 nm and 665 nm was measured using Perkin-Elmer's Envision instrument to calculate enzyme activity and confirm the inhibitory ability of the compounds. The measured values at 7 compound concentrations were analyzed using the Prism program (version 5.01, Graphpad Software, Inc.), and the IC50 (μM) values, which are measures of the compounds' inhibitory activity, were calculated.

[2] = target: EGFR del19 (Homo sapiens (Human), UniProt P00533, DEL746-750); test: HTRF inhibitory activity against EGFR mutant enzyme (EGFR del19); assay type: biochemical; conditions: recombinant enzyme, 37° C. for 2 hours
Chain of EGFR del19 (P00533 other isoform, or with tags, fused parts or gaps del 1-668/del 746-750 limits assumed): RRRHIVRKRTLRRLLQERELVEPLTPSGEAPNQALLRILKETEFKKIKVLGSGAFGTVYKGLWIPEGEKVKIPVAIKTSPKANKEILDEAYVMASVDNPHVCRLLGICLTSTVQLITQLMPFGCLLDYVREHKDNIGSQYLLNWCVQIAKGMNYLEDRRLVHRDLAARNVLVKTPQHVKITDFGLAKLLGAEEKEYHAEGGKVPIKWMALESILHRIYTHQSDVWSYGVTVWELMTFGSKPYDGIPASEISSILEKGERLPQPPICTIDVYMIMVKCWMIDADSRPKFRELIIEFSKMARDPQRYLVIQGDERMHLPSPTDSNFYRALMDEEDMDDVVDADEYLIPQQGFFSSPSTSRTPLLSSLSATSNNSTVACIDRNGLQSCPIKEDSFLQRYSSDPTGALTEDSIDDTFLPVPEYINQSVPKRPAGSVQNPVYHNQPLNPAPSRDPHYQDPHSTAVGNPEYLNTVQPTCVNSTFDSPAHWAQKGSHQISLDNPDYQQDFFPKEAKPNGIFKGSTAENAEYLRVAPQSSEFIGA
Method: as §1, §2, §3

[3] = target: HER2 A775_G776insYVMA (Homo sapiens (Human), UniProt P04626, INS775YVMA); test: HTRF inhibitory activity against HER2 mutant enzyme; assay type: biochemical; conditions: recombinant enzyme, 37° C. for 2 hours
Chain of HER2 A775_G776insYVMA (P04626 other isoform, or with tags, fused parts or gaps del 1-675/ins YVMA behind 775 limits assumed): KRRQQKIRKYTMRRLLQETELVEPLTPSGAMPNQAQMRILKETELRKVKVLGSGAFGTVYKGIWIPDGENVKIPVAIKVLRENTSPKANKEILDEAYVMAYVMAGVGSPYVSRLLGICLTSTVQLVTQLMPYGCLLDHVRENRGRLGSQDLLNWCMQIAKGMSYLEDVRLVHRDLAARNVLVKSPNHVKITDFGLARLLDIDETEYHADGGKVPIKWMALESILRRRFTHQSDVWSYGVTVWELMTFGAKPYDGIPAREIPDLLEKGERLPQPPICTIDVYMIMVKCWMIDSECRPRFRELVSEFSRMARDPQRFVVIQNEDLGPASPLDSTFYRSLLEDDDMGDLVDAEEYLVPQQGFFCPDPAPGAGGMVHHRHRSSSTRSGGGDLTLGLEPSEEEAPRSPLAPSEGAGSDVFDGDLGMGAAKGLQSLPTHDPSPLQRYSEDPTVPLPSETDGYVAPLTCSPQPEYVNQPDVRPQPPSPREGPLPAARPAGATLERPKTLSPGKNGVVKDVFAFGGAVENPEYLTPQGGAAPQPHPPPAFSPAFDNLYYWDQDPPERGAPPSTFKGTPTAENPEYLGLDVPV
Method: The activity of the compounds of the present invention against HER mutant enzymes was measured using the HTRF system purchased by Cisbio as follows. As a HER2 mutant enzyme, the HER2 A775_G776insYVMA mutant enzyme was used by purchasing a recombinant protein provided by Carna Biosciences.
as §2, with “mM DTT. In addition thereto, the enzymatic reaction” for “mM DTT. An enzymatic reaction”, “of the activity inhibitory effect” for “of the inhibitory effect”, “compounds on HER2 A775_G776insYVMA mutation was performed” for “compounds on EGFR activity was performed”, “μL of HER2 A775_G776insYVMA mutant enzyme” for “μL of EGFR mutant enzyme”
as §3, with “Finally, the ratio of fluorescence values at 615 nm and 665 nm was measured using Perkin-Elmer's Envision instrument to calculate enzyme activity and confirm the inhibitory ability of the compounds.” left out, “ability,” for “activity,”

[4] = system: Ba/F3 HER2 A775_G776insYVMA; test: Growth inhibition of Ba/F3 HER2 mutant cells (CellTiter-Glo); assay type: cell-based; conditions: Mus musculus, BaF3, 72 hours
Method: The activity of the compounds of the present invention against Ba/F3 HER2 A775_G776insYVMA and Ba/F3 HER2 G776delinsVC mutant cell lines was measured using the CellTiter-Glo system purchased from Promega as follows. CellTiter-Glo assay is a method to measure cell viability by monitoring ATP present in cells. Ba/F3 HER2 A775_G776insYVMA and Ba/F3 HER2 G776delinsVC mutant cell lines were purchased from Crown Biosciences. Ba/F3 HER2 A775_G776insYVMA and Ba/F3 HER2 G776delinsVC mutant cell lines were cultured in RPMI containing 10% FBS and 1% penicillin-streptomycin with 1 μg/mL of puromycin in a CO2 incubator at 37° C.
(§4) The analysis of the ability of the compounds to inhibit the growth of HER2 mutant cells was performed according to the following method. 1,000 cells/100 μL were seeded in a 96-well cell culture plate, and 24 hours thereafter, the compounds represented by Formula 1 were treated with 0 μM, 0.01 μM, 0.03 μM, 0.1 μM, 0.3 μM, 1 μM, 3 μM, and 10 μM. After reacting for 72 hours, the plate treated with the compounds were left at room temperature for 30 minutes, 100 μL of a reagent was added thereto, and then shaken at room temperature for 10 minutes. Finally, using equipment, the ratio of […] was measured to confirm the cell growth inhibition ability of the compounds. The measured values at 8 compound concentrations were analyzed using the Prism program (version 5.01, Graphpad Software, Inc.), and the IC50 (μM) values, which are measures of the compounds' inhibitory ability, were calculated.

[5] = system: Ba/F3 EGFR V769_D770insASV; test: Growth inhibition of Ba/F3 EGFR mutant cells (CellTiter-Glo); assay type: cell-based; conditions: 72 hours
Method: (§5) The activity of the compounds of the present invention against Ba/F3 EGFR V769_D770insASV and Ba/F3 EGFR D770_N771insSVD mutant cell lines was measured using the CellTiter-Glo system purchased from Promega as follows. CellTiter-Glo assay is a method to measure cell viability by monitoring ATP present in cells. Ba/F3 EGFR V769_D770insASV and Ba/F3 EGFR D770_N771insSVD mutant cell lines were purchased from Crown Biosciences. Ba/F3 EGFR V769_D770insASV and Ba/F3 EGFR D770_N771insSVD mutant cell lines were cultured in RPMI containing 10% FBS and 1% penicillin-streptomycin with 1 μg/mL of puromycin in a 5% CO2 incubator at 37° C.
as §4, with “growth of EGFR mutant cells” for “growth of HER2 mutant cells”, “μM. After incubating for 72” for “μM. After reacting for 72”, “reagent was further added thereto,” for “reagent was added thereto,”

[6] = system: Ba/F3 EGFR D770_N771insSVD; test: as above; assay type: cell-based; conditions: Ba/F3 EGFR-D770-N771ins_SVD, 72 hours
Method: as §5
as §4, with “growth of EGFR mutant cells” for “growth of HER2 mutant cells”, “μM. After incubating for 72” for “μM. After reacting for 72”, “reagent was further added thereto,” for “reagent was added thereto,”

pIC50 [1]	pIC50 [2]	pIC50 [3]	pIC50 [4]	pIC50 [5]	pIC50 [6]	SMILES
8.52	> 9.00	6.51	7.30 to 7.52			C=CC(=O)Nc1cc(Nc2ncc(Cl)c(Nc3ccccc3NS(=O)(=O)c3ccccc3)n2)c(OC)cc1N(C)CCN(C)C [Example 2, N-(5-((5-chloro-4-((2-(phenylsulfonamido)phenyl)amino)pyrimidin-2-yl)amino)-2-((2-(dimethylamino)ethyl)(methyl)amino)-4-methoxyphenyl)acrylamide]
8.70	> 9.00	6.35	7.30 to 7.52			C=CC(=O)Nc1cc(Nc2ncc(Cl)c(Nc3ccccc3NS(=O)(=O)c3ccc(C)cc3)n2)c(OC)cc1N(C)CCN(C)C [Example 3, N-(5-((5-chloro-4-((2-((4-methylphenyl)sulfonamido)phenyl)amino)pyrimidin-2-yl)amino)-2-((2-(dimethylamino)ethyl)(methyl)amino)-4-methoxyphenyl)acrylamide]
> 9.00	> 9.00	7.47	7.30 to 7.52			C=CC(=O)Nc1cc(Nc2ncc(Cl)c(Nc3ccccc3NS(=O)(=O)C(C)C)n2)c(OC)cc1N(C)CCN(C)C [Example 5, N-(5-((5-chloro-4-((2-((1-methylethyl)sulfonamido)phenyl)amino)pyrimidin-2-yl)amino)-2-((2-(dimethylamino)ethyl)(methyl)amino)-4-methoxyphenyl)acrylamide]
7.70	8.15	5.92	7.30 to 7.52			C=CC(=O)Nc1cc(Nc2nccc(Nc3ccccc3NS(=O)(=O)c3ccccc3)n2)c(OC)cc1N(C)CCN(C)C [Example 6, N-(2-((2-(dimethylamino)ethyl)(methyl)amino)-4-methoxy-5-((4-((2-(phenylsulfonamido)phenyl)amino)pyrimidin-2-yl)amino)phenyl)acrylamide]
8.30	> 9.00	6.55	7.30 to 7.52			C=CC(=O)Nc1cc(Nc2nccc(Nc3ccccc3NS(C)(=O)=O)n2)c(OC)cc1N(C)CCN(C)C [Example 7, N-(2-((2-(dimethylamino)ethyl)(methyl)amino)-4-methoxy-5-((4-((2-(methylsulfonamido)phenyl)amino)pyrimidin-2-yl)amino)phenyl)acrylamide]
9.00	> 9.00	7.15	< 7.00	< 7.00		C=CC(=O)Nc1cc(Nc2ncc(F)c(Nc3ccccc3NS(C)(=O)=O)n2)c(OC)cc1N(C)CCN(C)C [Example 11, N-(2-((2-(dimethylamino)ethyl)(methyl)amino)-5-((5-fluoro-4-((2-(methylsulfonamido)phenyl)amino)pyrimidin-2-yl)amino)-4-methoxyphenyl)acrylamide]
8.70	> 9.00	7.29	< 7.00	< 7.00		C=CC(=O)Nc1cc(Nc2ncc(C)c(Nc3ccccc3NS(C)(=O)=O)n2)c(OC)cc1N(C)CCN(C)C [Example 16, N-(2-((2-(dimethylamino)ethyl)(methyl)amino)-4-methoxy-5-((5-methyl-4-((2-(methylsulfonamido)phenyl)amino)pyrimidin-2-yl)amino)phenyl)acrylamide]
8.52	9.00	7.34	7.30 to 7.52			C=CC(=O)Nc1cc(Nc2ncc(Cl)c(Nc3ccccc3NS(C)(=O)=O)n2)c(OC)cc1N(C)CCN1CCCC1 [Example 21, N-(5-((5-chloro-4-((2-(methylsulfonamido)phenyl)amino)pyrimidin-2-yl)amino)-4-methoxy-2-(methyl(2-(pyrrolidin-1-yl)ethyl)amino)phenyl)acrylamide]
> 9.00	> 9.00	9.00		7.52 to 8.00	> 8.00	C=CC(=O)Nc1cc(Nc2ncc(Cl)c(Nc3cccc4c3N(S(C)(=O)=O)CC4)n2)c(OC)cc1N(C)CCN1CCCCC1 [Example 72, N-(5-((5-chloro-4-((1-(methylsulfonyl)indolin-7-yl)amino)pyrimidin-2-yl)amino)-4-methoxy-2-(methyl(2-(piperidin-1-yl)ethyl)amino)phenyl)acrylamide]
> 9.00	> 9.00	> 9.00		> 8.00	> 8.00	C=CC(=O)Nc1cc(Nc2ncc(Cl)c(Nc3cccc4c3N(S(C)(=O)=O)CC4)n2)c(OC)cc1N(C)CCN1CCCC1 [Example 74, N-(5-((5-chloro-4-((1-(methylsulfonyl)indolin-7-yl)amino)pyrimidin-2-yl)amino)-4-methoxy-2-(methyl(2-(pyrrolidin-1-yl)ethyl)amino)phenyl)acrylamide]
> 9.00	> 9.00	9.00		> 8.00	> 8.00	C=CC(=O)Nc1cc(Nc2ncc(Cl)c(Nc3ccc(C)cc3N(C)S(C)(=O)=O)n2)c(OC)cc1N(C)CCN1CCCC1 [Example 76, N-(5-((5-chloro-4-((4-methyl-2-(N-methylmethylsulfonamido)phenyl)amino)pyrimidin-2-yl)amino)-4-methoxy-2-(methyl(2-(pyrrolidin-1-yl)ethyl)amino)phenyl)acrylamide]
